The source of these data is US9550742B2, “11-OXO-10,11-dihydrodibenzo[B,F][1,4]thiazepine S-oxide derivatives and their use as dopamine D2 receptor antagonists” (The United States of America, as Represented by the …, priority 2013, dated 2017).

Assay [1] addresses D3 human dopamine receptors (Homo sapiens, UniProt P35462). The assay can be described thus: D3 binding assay ([^3H]methylspiperone, HEK293 membranes). The method, then:
Cells were cultured in Dulbecco's modified Eagle's Medium containing 10% FBS, 1,000 units/mL Penicillin, 1,000 mg/mL Streptomycin, 100 mM Sodium Pyruvate, 1 μg/mL Gentamicin, and […] G418. All cells were maintained at 37° C. in 5% CO2 and 90% humidity. For radioligand binding assays, cells were removed mechanically using calcium and magnesium-free Earle's Balanced Salt Solution (EBSS(−)). Intact cells were collected by centrifugation and then lysed with 5 mM Tris-HCl and 5 mM MgCl2 at pH 7.4 in a glass homogenizer. […] Membrane preparations were incubated for 90 min at room temperature with various concentrations of radioligand in a reaction volume of 250 μL EBSS containing 200 mM sodium metabisulfite. […] Bound ligand was separated from unbound by filtration through GF/C filters using a PerkinElmer cell harvester with ice cold EBSS (4 washes) and quantified on a Top-count (PerkinElmer) after addition of scintillation solution. […] In order to determine the affinity of a given compound for a receptor type, competition-binding assays were performed. […] Reactions were incubated, terminated, and quantified as indicated above.

Another assay deals with T1, D2 DAR (Homo sapiens, UniProt P14416).
T1 construct: expressed in transfected cells; host or cells: HEK293 T-REx, Tet-inducible, with chimeric G-protein Gqi5
T1 sequence (P14416 whole entry): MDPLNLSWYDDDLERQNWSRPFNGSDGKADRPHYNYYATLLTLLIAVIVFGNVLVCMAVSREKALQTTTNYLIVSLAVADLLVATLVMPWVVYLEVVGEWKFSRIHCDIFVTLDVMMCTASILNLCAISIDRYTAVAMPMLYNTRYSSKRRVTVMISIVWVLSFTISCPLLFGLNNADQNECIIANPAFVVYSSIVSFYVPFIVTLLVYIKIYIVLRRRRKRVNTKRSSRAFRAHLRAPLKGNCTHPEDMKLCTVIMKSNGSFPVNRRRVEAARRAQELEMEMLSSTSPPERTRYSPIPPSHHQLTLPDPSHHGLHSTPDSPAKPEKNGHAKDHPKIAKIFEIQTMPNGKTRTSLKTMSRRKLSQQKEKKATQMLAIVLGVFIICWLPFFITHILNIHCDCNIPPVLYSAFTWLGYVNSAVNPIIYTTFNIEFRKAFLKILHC
The assay can be described thus: D2 Ca^2+ screen assay (calcium accumulation, HEK293 T-REx with Gqi5). The format is cell-based. On the procedure: The resting concentration of calcium ions (Ca^2+) in the cells' cytoplasm is normally maintained in the range of 10-100 nM. To maintain this low concentration, Ca^2+ is actively pumped from the cytosol to the extracellular space and into the endoplasmic reticulum (ER), and sometimes into the mitochondria. Signaling occurs when the cell is stimulated to release Ca^2+ from intracellular stores. The most common signaling pathway that increases cytoplasmic calcium concentration is the phospholipase C (PLC) pathway. […] IP3 diffuses to the ER, binds to its receptor (IP3 receptor), which is a Ca^2+ channel and, thus, releases Ca^2+ from the ER to the cytosol. To measure this cytosolic Ca^2+ accumulation, we used the Screen Quest™ Fluo-8 Calcium Assay Kit (AAT Bioquest, Sunnyvale, Calif.). Acetoxymethyl (AM) esters bound to Fluo-8™ dye are non-polar molecules that easily cross live cell membranes transporting the dye inside the cell, and are then rapidly hydrolyzed by cellular esterases inside live cells. As Fluo-8™ is freed from AM esters, it binds to Ca^2+ and emits a fluorescent signal at 514 nm that escalates with increasing cytosolic Ca^2±. To measure this calcium flux signal, we used the Functional Drug Screening System (FDSS) (Hamamatsu, Japan), a high throughput screening device that allows optical detection of signal transmissions within living cells in a time-resolving fashion. […] Quest Fluo-8™ calcium reagent was freshly prepared prior to adding to the cells (lyophilized Fluo-8™ dye provided with the kit was re-suspended in 200 μL DMSO as a 500× stock and stored at −20° C.). 2 μL/well of Quest Fluo-8™ calcium dye diluted in HBSS +10 mM HEPES buffer (for every 10 mL buffer, 1 mL of 10× quencher provided in the kit and 20 μL of 500×DMSO stock dye were added) was added to cells with a Multi-Drop Combi (ThermoScientific) and incubated for 45-90 min in the dark at ambient temperature. Then, the plates were introduced into the FDSS where they were pinned with 23 nL of test compound or dopamine controls and were read by FDSS in non-stimulated mode for 180 sec for detection of agonists. […]

The target in the next assay is T2, D2 GPCR receptor (DAR) (Homo sapiens, UniProt P14416).
T2 construct: host or cells: CHO PathHunter β-arrestin cells
T2 sequence (P14416 whole entry): as above
The assay can be described thus: D2 beta-arrestin functional assay (PathHunter, CHO). In kind it is cell-based. From the text: For a secondary-screen and selectivity assays, DAR PathHunter® β-arrestin GPCR cell lines from DiscoveRx (Fremont, Calif.). In this) were used. In the D2 Receptor PathHunter® β-arrestin GPCR cell line, the D2 GPCR receptor (DAR) is overexpressed and fused with a small 42-amino acid fragment of β-galactosidase called ProLink™ on a CHO cellular background expressing a fusion protein of β-arrestin and a larger N-terminal deletion mutant of β-galactosidase (“enzyme acceptor”). When DAR is activated by dopamine, it stimulates binding of β-arrestin to the ProLink-tagged DAR and the two complementary parts of β-galactosidase form a functional enzyme. When substrate (PathHunter® Detection reagent) is added, β-galactosidase hydrolyzes it and generates a chemiluminescent signal.
D2 Receptor PathHunter® β-arrestin cells were seeded at 2,100 cells/well in 3 μL/well media (DiscoveRx Plating Reagent 2) with MultiDrop Combi dispenser (Thermo Scientific, Logan, Utah) onto white tissue culture treated 1,536-well Aurora plates (Brooks Automation, Chelmsford, Mass.) and allowed to attach overnight at 37° C., 5% CO2. Next, 23 nL/well of compound solutions in DMSO were added with a pintool transfer (Kalypsis, San Diego, Calif.). The cells were stimulated by compounds for 90 min at 37° C., 5% CO2, after which 1.5 μL/well of DiscoveRx detection reagent was added with BioRAPTR FRD dispenser. The detection reagent was prepared by mixing of Galacton Star Substrate, Emerald II solution and PathHunter buffer (supplied by the assay kit) together at a 1:5:19 proportion just prior to dispensing. The plates were incubated at ambient temperature for 1 hr, and the luminescent signal was read on a ViewLux plate reader (PerkinElmer, Waltham, Mass.).

In assay [2] the target is D2L human dopamine receptors (Homo sapiens, UniProt P14416). The assay can be described thus: D2 binding assay ([^3H]methylspiperone, HEK membranes). The method, then: Compounds were tested for differences in affinity between three dopamine receptor subtypes using radio-labeled ligand binding assays. The first assay determined the Ki value of the compounds for the D2 DAR subtype using stable HEK cell lines expressing the D2L human dopamine receptors (Codex Biosciences, Gaithersburg, Md.). Cells were cultured in Dulbecco's modified Eagle's Medium containing 10% FBS, 1,000 units/mL Penicillin, 1,000 mg/mL Streptomycin, 100 mM Sodium Pyruvate, 1 μg/mL Gentamicin, and […] G418. All cells were maintained at 37° C. in 5% CO2 and 90% humidity. For radioligand binding assays, cells were removed mechanically using calcium and magnesium-free Earle's Balanced Salt Solution (EBSS(−)). Intact cells were collected by centrifugation and then lysed with 5 mM Tris-HCl and 5 mM MgCl2 at pH 7.4 in a glass homogenizer. Homogenates were centrifuged at 20,000×g for 30 minutes. The membranes were re-suspended in EBSS (pH 7.4) and protein concentration was determined using a Bradford assay according to the manufacturer's recommendations (Bio-Rad). Membranes were diluted to 24 mg/mL. […] Membrane preparations were incubated for 90 min at room temperature with various concentrations of radioligand in a reaction volume of 250 μL EBSS containing 200 mM sodium metabisulfite. Non-specific binding was determined in the presence of 4 μM (+)-butaclamol. Bound ligand was separated from unbound by filtration through GF/C filters using a PerkinElmer cell harvester with ice cold EBSS (4 washes) and quantified on a Top-count (PerkinElmer) after addition of scintillation solution. […] In order to determine the affinity of a given compound for a receptor type, competition-binding assays were performed. […] Reactions were incubated, terminated, and quantified as indicated above.
D2L human dopamine receptors, sequence (P14416 whole entry): as above

Assay [3] concerns the target D3 dopamine receptor (DAR) (Homo sapiens, UniProt P35462). The experiment in a line: D3 beta-arrestin functional assay (PathHunter, CHO). In kind it is cell-based. The settings on record: dose response curve; read-out: D3 β-arrestin assay AC50.
Excerpt: A CHO cell line was engineered to overexpress D3 dopamine receptor (DAR) and fused with a small 42-amino acid fragment of β-gal called ProLink™. In addition, these cells stably express a fusion protein of β-arrestin and a larger N-terminal deletion mutant of β-galactosidase (“enzyme acceptor”). When DAR is activated by dopamine, it stimulates binding of β-arrestin to ProLink-tagged DARs, and the two complementary parts of β-galactosidase form a functional enzyme. When substrate (PathHunter® Detection reagent) is added, βgalactosidase hydrolyzes it and generates a chemiluminescent signal.
For the 1,536-well assay, D3 PathHunter® β-arrestin cells were seeded at 2,100 cells/well in 3 μL/well media (DiscoveRx Plating Reagent 2) with MultiDrop Combi dispenser (Thermo Scientific, Logan, Utah) onto white tissue culture treated 1,536-well Aurora plates (Brooks Automation, Chelmsford, Mass.) and allowed to attach overnight at 37° C., 5% CO2. Next, 23 nL/well of compound solutions in DMSO were added with a pintool transfer (Kalypsis, San Diego, Calif.). The cells were stimulated by compounds for 90 minutes at 37° C., 5% CO2, after which 1.5 μL/well of DiscoveRx detection reagent was added with BioRAPTR FRD dispenser. […] The plates were incubated at ambient temperature for 1 h, and the luminescent signal was read on ViewLux plate reader (PerkinElmer, Waltham, Mass.).

For orientation: Ki means a measure of affinity in units of concentration, obtained from inhibition or displacement. Read a low Ki as tighter binding. In general, AC50 refers to the concentration giving half of the maximal activity seen.

Structures are written as SMILES. Read-outs that look alike come from different tables or passages of the source. A value given as a limit tells only on which side of the number the result lay.

D3 dopamine receptor (DAR), sequence (P35462 whole entry): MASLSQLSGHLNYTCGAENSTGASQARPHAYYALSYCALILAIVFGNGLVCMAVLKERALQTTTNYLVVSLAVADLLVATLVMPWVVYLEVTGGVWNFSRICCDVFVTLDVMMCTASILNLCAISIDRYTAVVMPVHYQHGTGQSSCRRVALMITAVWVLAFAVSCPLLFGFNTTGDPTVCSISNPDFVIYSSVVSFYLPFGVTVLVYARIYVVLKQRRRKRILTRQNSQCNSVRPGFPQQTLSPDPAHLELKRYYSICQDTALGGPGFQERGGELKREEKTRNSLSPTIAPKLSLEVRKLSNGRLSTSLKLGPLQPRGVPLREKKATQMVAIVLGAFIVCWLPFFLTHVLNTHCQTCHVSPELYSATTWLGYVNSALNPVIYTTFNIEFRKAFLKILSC
D3 human dopamine receptors, sequence (P35462 whole entry): as above

Consider `CCN1C(=O)c2ccccc2[S+]([O-])c2ccc(C(=O)NCc3ccc(OC)cc3)cc21` (centres unmarked) [Compound 1, 10-Ethyl-N-(4-methoxybenzyl)-11-oxo-10,11-dihydrodibenzo[b,f][1,4]thiazepine-8-carboxamide 5-oxide], for which the figures for the Ki in assay [1] and in assay [2] were 480 nM and 80 nM, respectively. Moreover, the AC50 on D2 DAR (dopamine D2 calcium release assay of Example 1, read-out: Ca^2+ AC50) is less than 1000 nM; on D2 DAR (dose response curve, read-out: D2 Ca^2+ assay AC50), 281 nM; at D2 GPCR receptor (DAR) (dose response curve, read-out: D2 β-arrestin assay AC50) it was 2890 nM; in assay [3] it was 5760 nM. Also, the “D3/D2 beta-arrestin IC50ratio” value at D2 GPCR receptor (DAR) (ratio of D3 (Example 4) to D2 (Example 2) beta arrestin assay) is recorded as 2.0. Also, the “D3/D2 binding Ki ratio” value in assay [2] (ratio of D3 (Example 5) to D2 (Example 3) binding assay) is reported as 6.0.
